Test results as given in patent US20230085307A1, “PYRIDAZINONE COMPOUND AND HERBICIDE” (NISSAN CHEMICAL CORPORATION, priority 2019, published 2023).

What was measured:
[1] = tested on: Japanese bulrush; experiment: Test Example 1: herbicidal activity, application before weed generation under submerged conditions (Table 16, symbol B); assay type: in vivo, Japanese bulrush (Schoenoplectus juncoides); details: 320 g/ha applied herbicide
How it was run: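 Emulsion formulation, water-diluted to set dose, was put onto the flooded surface (4 cm depth, alluvial soil) the same day weeds were sown and 2.5-leaf rice transplanted. After 3 weeks at 25-30 °C under glass, each species was rated 0 (≤5% kill) to 5 (≥90% kill).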

[2] = tested on: late watergrass; experiment: Test Example 2: herbicidal activity, application during weed generation under submerged conditions (Table 17, symbol A); assay type: in vivo, late watergrass (Echinochloa oryzicola); details: AAH 320 g/ha; application during weed generation, submerged conditions
How it was run: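 Effect on each weed is rated three weeks post-treatment, using the same scoring criteria as the preceding test. Plants grow from mixed-sown seed in flooded alluvial soil (4 cm water) at 25° C. to 30° C., and are treated at one to two leaves with diluted emulsion dropped onto the water.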

[3] = tested on: barnyard grass; experiment: Test Example 3: herbicidal effect by foliage application, Wagner pot (Table 18, symbol H); assay type: in vivo, barnyard grass (Echinochloa crus-galli); details: 320 g/ha
How it was run: (§1)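 Plants were sown in alluvial soil held under 0.1–0.5 cm standing water and grown 14 days in a greenhouse at 25–30 °C. An emulsifiable formulation, water-diluted to the set dose, was then sprayed onto the foliage, and effects were scored three weeks later using previously defined criteria.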

[4] = tested on: Chinese sprangletop; experiment: Test Example 3: herbicidal effect by foliage application, Wagner pot (Table 18, symbol D); assay type: in vivo, chinese sprangletop (Leptochloa chinensis); details: 320 g/ha
How it was run: as §1

[5] = tested on: southern crabgrass; experiment: Test Example 4: herbicidal effect by soil treatment (Table 19, symbol F); assay type: in vivo, southern crabgrass (Digitaria ciliaris); details: 320 g/ha
How it was run: (§2)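 Soil-surface application: an emulsion agent diluted with water to the predetermined dose is sprayed uniformly over seeds lying under roughly 1.5 cm of sterilized diluvial soil. Boxes stay in a greenhouse at 25° C. to 30° C. Three weeks later, each species is graded on previously defined criteria.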

[6] = tested on: green foxtail; experiment: Test Example 4: herbicidal effect by soil treatment (Table 19, symbol G); assay type: in vivo, green foxtail (Setaria viridis); details: 320 g/ha
How it was run: as §2

[7] = tested on: barnyard grass; experiment: Test Example 4: herbicidal effect by soil treatment (Table 19, symbol H); assay type: in vivo, barnyard grass (Echinochloa crus-galli); details: 320 g/ha
How it was run: as §2

[8] = tested on: blackgrass; experiment: Test Example 4: herbicidal effect by soil treatment (Table 19, symbol J); assay type: in vivo, blackgrass (Alopecurus myosuroides); details: 320 g/ha
How it was run: as §2

[9] = tested on: velvetleaf; experiment: Test Example 4: herbicidal effect by soil treatment (Table 19, symbol M); assay type: in vivo, velvetleaf (Abutilon theophrasti); details: 320 g/ha
How it was run: as §2

[10] = tested on: redroot pigweed; experiment: Test Example 4: herbicidal effect by soil treatment (Table 19, symbol N); assay type: in vivo, redroot pigweed (Amaranthus retroflexus); details: 320 g/ha
How it was run: as §2

[11] = tested on: lambsquarters; experiment: Test Example 4: herbicidal effect by soil treatment (Table 19, symbol O); assay type: in vivo, lambsquarters (Chenopodium album); details: 320 g/ha
How it was run: as §2

[12] = tested on: chickweed; experiment: Test Example 4: herbicidal effect by soil treatment (Table 19, symbol P); assay type: in vivo, common chickweed (Stellaria media); details: 320 g/ha
How it was run: as §2

[13] = tested on: wild oat; experiment: Test Example 5: herbicidal effect by foliage application, plastic box (Table 20, symbol I); assay type: in vivo, wild oat (Avena fatua); details: foliage application, 320 g/ha, evaluated three weeks after application
How it was run: (§3)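 Sow seeds spot-wise in sterilized diluvial soil; cover with ~1.5 cm soil. Grow 14 days in greenhouse, 25° C. to 30° C. Spray foliage with emulsion diluted to predetermined amount. Rate effect after 3 weeks.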

[14] = tested on: blackgrass; experiment: Test Example 5: herbicidal effect by foliage application, plastic box (Table 20, symbol J); assay type: in vivo, blackgrass (Alopecurus myosuroides); details: foliage application, 320 g/ha, evaluated three weeks after application
How it was run: as §3

[15] = tested on: Italian ryegrass; experiment: Test Example 5: herbicidal effect by foliage application, plastic box (Table 20, symbol K); assay type: in vivo, Italian ryegrass (Lolium multiflorum); details: foliage application, 320 g/ha, evaluated three weeks after application
How it was run: as §3

[16] = tested on: windgrass; experiment: Test Example 5: herbicidal effect by foliage application, plastic box (Table 20, symbol L); assay type: in vivo, windgrass (Apera spica-venti); details: foliage application, 320 g/ha, evaluated three weeks after application
How it was run: as §3

[17] = tested on: lambsquarters; experiment: Test Example 5: herbicidal effect by foliage application, plastic box (Table 20, symbol O); assay type: in vivo, lambsquarters (Chenopodium album); details: foliage application, 320 g/ha, evaluated three weeks after application
How it was run: as §3

Structure (SMILES) | Herbicidal effect on B: Japanese bulrush (grade 0-5) [1] | herbicidal effect rating, A: late watergrass [2] | herbicidal effect on H (barnyard grass), rating 0-5 [3] | herbicidal effect on D (Chinese sprangletop), rating 0-5 [4] | herbicidal effect rating, F: southern crabgrass [5] | herbicidal effect rating, G: green foxtail [6] | herbicidal effect rating, H: barnyard grass [7] | herbicidal effect rating, J: blackgrass [8] | herbicidal effect rating, M: velvetleaf [9] | herbicidal effect rating, N: redroot pigweed [10] | herbicidal effect rating, O: lambsquarters [11] | herbicidal effect rating, P: chickweed [12] | herbicidal effect on I: wild oat [13] | herbicidal effect on J: blackgrass [14] | herbicidal effect on K: Italian ryegrass [15] | herbicidal effect on L: windgrass [16] | herbicidal effect on O: lambsquarters [17]
COCCOc1ccc(-c2sc3ccc(F)cc3c2-c2c(O)c(C)nn(C)c2=O)cc1 [2-056] | 5 (Herbicidal rate of 90% or more (almost completely withered)) | 3 (Herbicidal rate of 40% or more and less than 70%) | 5 (Herbicidal rate of 90% or more (almost completely withered)) | 5 (Herbicidal rate of 90% or more (almost completely withered)) | 5 (Herbicidal rate of 90% or more (almost completely withered)) | 5 (Herbicidal rate of 90% or more (almost completely withered)) | 5 (Herbicidal rate of 90% or more (almost completely withered)) | 0 (Herbicidal rate of 5% or less (almost no effect)) | 5 (Herbicidal rate of 90% or more (almost completely withered)) | 5 (Herbicidal rate of 90% or more (almost completely withered)) | 5 (Herbicidal rate of 90% or more (almost completely withered)) | 5 (Herbicidal rate of 90% or more (almost completely withered)) | 4 (Herbicidal rate of 70% or more and less than 90%) | 5 (Herbicidal rate of 90% or more (almost completely withered)) | 4 (Herbicidal rate of 70% or more and less than 90%) | 4 (Herbicidal rate of 70% or more and less than 90%) | 5 (Herbicidal rate of 90% or more (almost completely withered))
Cc1nn(C)c(=O)c(-c2c(-c3ccc(OCC4CC4)cc3)sc3ccc(F)cc23)c1O [2-060] | 5 (Herbicidal rate of 90% or more (almost completely withered)) | 0 (Herbicidal rate of 5% or less (almost no effect)) | 3 (Herbicidal rate of 40% or more and less than 70%) | 3 (Herbicidal rate of 40% or more and less than 70%) | 3 (Herbicidal rate of 40% or more and less than 70%) | 1 (Herbicidal rate of 5% or more and less than 20%) | 3 (Herbicidal rate of 40% or more and less than 70%) | 0 (Herbicidal rate of 5% or less (almost no effect)) | 0 (Herbicidal rate of 5% or less (almost no effect)) | 5 (Herbicidal rate of 90% or more (almost completely withered)) | 4 (Herbicidal rate of 70% or more and less than 90%) | 1 (Herbicidal rate of 5% or more and less than 20%) | 0 (Herbicidal rate of 5% or less (almost no effect)) | 3 (Herbicidal rate of 40% or more and less than 70%) | 0 (Herbicidal rate of 5% or less (almost no effect)) | 4 (Herbicidal rate of 70% or more and less than 90%) | 4 (Herbicidal rate of 70% or more and less than 90%)
Cc1nn(C)c(=O)c(-c2c(-c3ccc(OCc4ccccc4)cc3)sc3ccc(F)cc23)c1O [2-062] | 4 (Herbicidal rate of 70% or more and less than 90%) | 0 (Herbicidal rate of 5% or less (almost no effect)) | 5 (Herbicidal rate of 90% or more (almost completely withered)) | 5 (Herbicidal rate of 90% or more (almost completely withered)) | 1 (Herbicidal rate of 5% or more and less than 20%) | 3 (Herbicidal rate of 40% or more and less than 70%) | 0 (Herbicidal rate of 5% or less (almost no effect)) | 0 (Herbicidal rate of 5% or less (almost no effect)) | 1 (Herbicidal rate of 5% or more and less than 20%) | 4 (Herbicidal rate of 70% or more and less than 90%) | 3 (Herbicidal rate of 40% or more and less than 70%) | 0 (Herbicidal rate of 5% or less (almost no effect)) | 0 (Herbicidal rate of 5% or less (almost no effect)) | 1 (Herbicidal rate of 5% or more and less than 20%) | 1 (Herbicidal rate of 5% or more and less than 20%) | 4 (Herbicidal rate of 70% or more and less than 90%) | 5 (Herbicidal rate of 90% or more (almost completely withered))
CCCC(=O)Oc1c(C)nn(C)c(=O)c1-c1c(-c2ccc(C(C)=O)cc2)sc2ccc(F)cc12 [2-078] | 4 (Herbicidal rate of 70% or more and less than 90%) | 3 (Herbicidal rate of 40% or more and less than 70%) | 3 (Herbicidal rate of 40% or more and less than 70%) | 5 (Herbicidal rate of 90% or more (almost completely withered)) | 0 (Herbicidal rate of 5% or less (almost no effect)) | 0 (Herbicidal rate of 5% or less (almost no effect)) | 0 (Herbicidal rate of 5% or less (almost no effect)) | 1 (Herbicidal rate of 5% or more and less than 20%) | 3 (Herbicidal rate of 40% or more and less than 70%) | 4 (Herbicidal rate of 70% or more and less than 90%) | 4 (Herbicidal rate of 70% or more and less than 90%) | 3 (Herbicidal rate of 40% or more and less than 70%) | 2 (Herbicidal rate of 20% or more and less than 40%) | 4 (Herbicidal rate of 70% or more and less than 90%) | 5 (Herbicidal rate of 90% or more (almost completely withered)) | 5 (Herbicidal rate of 90% or more (almost completely withered)) | 4 (Herbicidal rate of 70% or more and less than 90%)
